# Assay results published in the supplement of paper PMC10307832.
# Legend:
# Assay in all cases: relative viability (nuclei count vs DMSO), 5 days (fraction); higher = more cells survive
# [1] = compound: CCn1c(-c2nonc2N)nc2c(C#CC(C)(C)O)ncc(OC[C@H]3CCCNC3)c21 + Cc1nc(NC(=O)N2CCC[C@H]2C(N)=O)sc1-c1ccnc(C(C)(C)C(F)(F)F)c1 [Alpelisib] (partner 2 µM)
# How it was run: (§1)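 A single step with final 0.05% Triton X-100, 1% formaldehyde and 1 ug/ml Hoechst fixed the cells and stained nuclei 5 days after treatment. Lung cancer cell lines in 1536-well plates had been treated by pin tool the day after seeding with one drug alone or a fixed anchor-drug dose plus five library-drug doses (not always all listed) in √10 steps, and nuclei were counted on 4× images. Relative viability is the ratio of nuclei in treated wells to nuclei in vehicle wells, taken as the median of duplicate plates.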
# BAM7 + Palbociclib = compound: CCOC1=CC=CC=C1N=NC2=C(NN(C2=O)C3=NC(=CS3)C4=CC=CC=C4)C [BAM7] + CC(=O)c1c(C)c2cnc(Nc3ccc(N4CCNCC4)cn3)nc2n(C2CCCC2)c1=O [Palbociclib] (partner 0.5 µM)
# How it was run: as §1
# [2] = compound: CCn1c(-c2nonc2N)nc2c(C#CC(C)(C)O)ncc(OC[C@H]3CCCNC3)c21 + Nc1ncn([C@H]2C[C@H](O)[C@@H](CO)O2)c(=O)n1 [Decitabine] (partner 2 µM)
# How it was run: as §1
# BAM7 + Pemetrexed = compound: CCOC1=CC=CC=C1N=NC2=C(NN(C2=O)C3=NC(=CS3)C4=CC=CC=C4)C [BAM7] + Nc1nc2[nH]cc(CCc3ccc(C(=O)N[C@@H](CCC(=O)O)C(=O)O)cc3)c2c(=O)[nH]1 [Pemetrexed] (partner 0.2 µM)
# How it was run: as §1
Cell Line,relative viability ([1]; first compound 0.01 µM),relative viability ([1]; first compound 0.03162 µM),relative viability ([1]; first compound 0.1 µM),relative viability ([1]; first compound 0.3162 µM),relative viability ([1]; first compound 1 µM),relative viability (BAM7 + Palbociclib; first compound 0.5 µM),relative viability (BAM7 + Palbociclib; first compound 5 µM),relative viability (BAM7 + Palbociclib; first compound 15.81 µM),relative viability (BAM7 + Palbociclib; first compound 50 µM),relative viability ([2]; first compound 0.01 µM),relative viability ([2]; first compound 0.03162 µM),relative viability ([2]; first compound 0.1 µM),relative viability ([2]; first compound 0.3162 µM),relative viability ([2]; first compound 1 µM),relative viability (BAM7 + Pemetrexed; first compound 0.5 µM),relative viability (BAM7 + Pemetrexed; first compound 5 µM),relative viability (BAM7 + Pemetrexed; first compound 15.81 µM),relative viability (BAM7 + Pemetrexed; first compound 50 µM)
NCI-H460,0.439,0.496,0.477,0.447,0.437,0.179,0.148,0.216,0.165,0.529,0.398,0.493,0.465,0.513,0.0639,0.0614,0.0597,0.0573
NCI-H661,0.562,0.553,0.603,0.635,0.576,0.443,0.433,0.422,0.422,0.504,0.591,0.513,0.561,0.543,0.949,0.973,0.921,0.917
HCC-15,0.868,0.945,0.86,0.832,0.946,0.621,0.694,0.614,0.686,0.695,0.648,0.637,0.558,0.571,0.225,0.216,0.22,0.227
LCLC-103H,0.984,0.945,1,0.848,0.953,0.507,0.493,0.484,0.529,0.726,0.797,0.737,0.716,0.781,0.524,0.491,0.487,0.444
NCI-H441,0.653,0.891,0.749,0.683,0.717,0.285,0.191,0.205,0.267,0.226,0.226,0.271,0.197,0.29,0.299,0.252,0.277,0.242
EPLC-272H,0.962,1.02,0.989,0.858,0.956,0.349,0.315,0.327,0.351,0.413,0.378,0.349,0.347,0.356,0.328,0.371,0.401,0.322
